From patent US20130090516A1, “Local Anesthesia By Magnet-Directed Concentration of Nanoparticle Conjugated Anesthetic” (CARNEGIE MELLON UNIVERSITY, priority 2011, published 2013)

What was measured:
Sprague Dawley rats [1] = assay: Acute toxicity after intravenous injection (cardiopulmonary arrest as evidence of toxicity); assay type: in vivo, rat; conditions: 1.2 mg intravenous
Method: Conjugated nanoparticles so prepared may be injected intravenously into a subject. […] The efficacy as a local anesthetic when concentrated with an external magnet was assessed in the following experiment.
Specifically, acute toxicity studies of unconjugated magnetic nanoparticles, assay of plasma concentration of ropivacaine, and measurement of tissue concentration of ropivacaine at the ankle were performed.
Acute toxicity studies of unconjugated magnetic nanoparticles were conducted in 10 animals. Cardiopulmonary arrest was taken as evidence of toxicity.
(§1) Each group included 3 animals. A volume of 0.3 ml of blood was drawn before injection, and at 15, 30, 60, 120, 180, 240 and 300 minutes after the injections. […] The animals in groups Bplasma and Cplasma had 14 mg of ropivacaine complexed with MNPs. In group Cplasma, the magnet assembly used in Example 2 was placed around the right ankle before injection and removed after 30 minutes.

[2] = rat, in vivo
Method: (§2) The experiments were done after placing the animals under isoflurane anesthesia and spontaneous ventilation. A volume of 2 milliliters of the injectate was given at 5-15° C. intravenously via a tail vein cannula over four to five minutes. A jugular catheter was inserted where necessary for blood withdrawals.
(§3) A separate set of two animals for each condition were used to assess ropivacaine concentration in the ankle.
(§4) In all groups, 0.3 ml of blood was withdrawn at baseline, at 15 minutes, and at 30 minutes for plasma ropivacaine determination. At 30 minutes, skin and subcutaneous tissue all around the right ankle were isolated for ropivacaine analysis. Analysis was performed by HPLC-MS-MS.
Again, data are presented as mean (SD)

[3] = Ropivacaine concentration in ankle tissue and plasma at 30 minutes (HPLC-MS-MS); conditions: Group A, ropivacaine only, 0.5 h
Method: as §2, §3, §4
Again, data are presented as mean (SD)

[4] = Plasma concentration / pharmacokinetics of ropivacaine after intravenous administration; assay type: in vivo, rat
Method: For the assessment of plasma concentration of ropivacaine, the following groups were studied:
as §1
After intravenous administration, the plasma concentration of ropivacaine declined in an exponential manner as expected, in all three groups. Group Aplasma cannot be directly compared to the other two groups because the close in group Aplasma was 14 times lower. Between groups Bplasma and Cplasma, there were no differences in any parameter. Data are presented as mean (SD). Lambda-Z is defined as terminal elimination rate constant. AUC is the area under the concentration curve. Vd is the volume of distribution. Cl is clearance rate. N/A means not applicable. Listed probability values are established through t-tests between groups B and C.

Sprague Dawley rats [5] = assay: Hargreaves test of thermal nociception (paw withdrawal latency); assay type: in vivo, rat; conditions: subcutaneous 0.8 ml of 0.1% or 0.2%, six animals each
From the text: Sprague Dawley rats (300-350 grams) were used to assess the efficacy of formulations of ropivacaine generated as described above. The Hargreaves test of thermal nociception evaluates the level of sensory anesthesia of the plantar surface of the paw and was used to assess pain sensation here. Animals were placed in individual Plexiglas testing chambers in a modified Hargreaves box. Hargreaves et al., 1988, which is hereby incorporated by reference. A very low power idle intensity beam was used to initially target the plantar surface of the hind paw. Once appropriately placed, the beam was switched to a higher power active intensity (approximately 50% of maximum intensity). This causes radiant heat stimulation of the plantar hind paw and allows for a measure of the latency of the rat's paw withdrawal threshold.
Before each experiment, baseline nociception testing was performed on the animals. In all experiments, the left paws were used as controls and the right paws were utilized in the treatment condition. Rats were anesthetized using the general anesthetic isoflurane, awaked after a designated time, and the paws were tested after their returned to baseline wakefulness (approximately 5-10 minutes). Each hind paw was tested at 5 minute intervals for 40 minutes and at 10-minute intervals for 120 minutes. […]

SMILES: CCCN1CCCC[C@H]1C(=O)Nc1c(C)cccc1C [Plain ropiv, ropivacaine]
- lethality (Sprague Dawley rats [1]): lethal
- factor by which absolute tissue drug concentration was higher than groups B and C [2]: 7-10
- Ratio of tissue to plasma concentration [3]: 3.12
- Cmax ([4]; Group A, 1 mg ropivacaine iv, mean): 863.3 ng/mL
- Cmax (dose normalized) ([4]; rat, in vivo, iv): 863.3 ng/mL/mg
- AUC (0-inf) ([4]; rat, in vivo, iv, 1 mg): 875 ng·h/mL
- Cl (clearance rate) ([4]; rat, in vivo, iv, 1 mg): 1462 mL/h
- Half life ([4]; rat, in vivo, iv, 1 mg): 1.63 h
- Tmax ([4]; rat, in vivo, iv, 1 mg): 15 min
- Vd (volume of distribution) ([4]; rat, in vivo, iv, 1 mg): 3180 mL
- traditional nerve block (ankle block) (Sprague Dawley rats [5]): achieved
